The target in assay [1] is T1, human recombinant His-fused soluble protein MDM2 (residues 1–118) (Homo sapiens, UniProt Q00987).
T1 construct: His-fused soluble protein MDM2 (residues 1–118); His
The assay can be described thus: biochemical. In kind it is binding. The note with it: for FQ-Test: fit quality calculated using pKi tested by FP; for Ki: fluorescence polarization assay.

Assay [2] has as its system HepG2 (wt-p53). The assay can be described thus: cells. In kind it is cell-based, human. The following applies: for IC50: Homo sapiens, HepG2, means of three experiments, 72 h, read-out: MTT IC50 HepG2 (wt-p53). The method, then:
(§1) In order to further confirm whether they inhibit MDM2 and release p53, a cellular test using HepG2 cell line (wild-type p53; wt-p53) vs. Hep3B cell line (p53 null) was carried out. The selectivity was calculated by IC50 against Hep3B divided by HepG2 (Table 1). The larger the selectivity value was, the stronger the interaction force between the ligands and MDM2.
(§2) The cellular growth inhibitory activity was determined using two human hepatoma cell lines, HepG2 (with wild-type p53) and Hep3B (with wt-p53 null). The IC50 was then analyzed using the GraphPad Prism 5 software (see Supplemental Materials).
(§3) In vitro antitumor activity.
(§4) Liver hepatocellular carcinoma HepG2 (with wild-type p53) and Hep3B (with p53 null) cell lines […]
(§5) 37°C in a humidified 5% carbon dioxide humidified incubator.
(§6) 5-6×10^4 cells per well were plated in 96-well plates (Costar) for 24 h, and the test compounds (prepared in 100% DMSO as a stock solution) were added in triplicate (100µL per well). 8 different concentrations (from 0.05 to 100µM) were tested for each compound. For each assay, the controls included only the medium (blank) and only the cells (positive). After 72 h of incubation, 20 µL of MTT (3-[4,5-dimethylthiazol-2-yl]-2,5-diphenyltetrazoliumbromide) solution (5 mg/mL) was added to each well, and after the samples were shaken for 1 min the plate was incubated further for 4 h at 37°C. […] were dissolved with 150 µL of DMSO and the plates were read using Eon (BioTek) at 570 nm. The IC50 was then analyzed using GraphPad Prism software. […]

In assay [3] the test system is Hep3B (p53 null). Kind of assay: cells. The assay is classed as cell-based. The note with it: Homo sapiens, means of three experiments, 72 h, read-out: MTT IC50 Hep3B (p53 null). As to the method: as §1, §2, §3, §4, §5, §6
Assay [4] deals with MDM2/p53 PPI. The following applies: Figure 9, representative of each group; collected from the literature; cited from earlier work.
Where [5] appears, read: IC50 of Hep3B (p53 null) divided by HepG2 (wt-p53).

SMILES strings stand for the structures. Like-named read-outs stand apart in the source and are kept apart here.

T1 sequence (Q00987 1-118): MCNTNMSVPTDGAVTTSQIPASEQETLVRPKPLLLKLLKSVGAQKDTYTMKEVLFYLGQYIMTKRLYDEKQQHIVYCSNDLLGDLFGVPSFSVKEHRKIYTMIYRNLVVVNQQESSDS

Consider `COc1ccc(OC)c(S(=O)(=O)N(C)CC(=O)Nc2ccccc2OC)c1` [compound 2], for which, in assay [1], the FQ-Test is 0.78 and the Ki was 2.21 µM. Further, the IC50 in assay [2] came to 5.38 µM. In addition, in assay [2] (setting [5]), the Selectivity is on record as 6.23. For the same compound, in assay [3], the half-maximal inhibitory concentration (IC50) was determined as 33.5 µM.
With `CCOc1cc(C(C)(C)C)ccc1C1=N[C@@](C)(c2ccc(Cl)cc2)[C@@](C)(c2ccc(Cl)cc2)N1C(=O)N1CCN(CCCS(C)(=O)=O)CC1` [A], the IC50 in assay [4] is 0.09 µM.
Regarding `Nc1c(Cl)cc([C@@H](O)CN[C@H]2c3ccccc3CSc3ccccc32)cc1Cl` [compound 4], in assay [1], the FQ-Test was 0.83 and the inhibitory constant (Ki) amounted to 0.82 µM. For the same compound, in assay [2], the Selectivity is 6.51 and the half-inhibitory concentration (IC50) came to 5.35 µM. For the same compound, the IC50 in assay [3] is 34.8 µM.
`CC(C)C(CS(=O)(=O)C(C)C)N1C(=O)C(C)(CC(=O)O)CC(c2cccc(Cl)c2)C1c1ccc(Cl)cc1` (stereo not shown) [B]: the IC50 in assay [4] is 0.0001 µM.
Regarding `COC(=O)c1cc(Oc2ccc(C(F)(F)F)cc2NS(=O)(=O)c2cccc(Cl)c2C)cs1` [compound 5], in assay [1], the FQ-Test is listed as 0.80 and the Ki came out at 0.94 µM. In addition, the half-maximal inhibitory concentration (IC50) in assay [2] was determined as 4.77 µM. The compound also returned a Selectivity in assay [2] (setting [5]) of 4.87. For the same compound, the half-inhibitory concentration (IC50) in assay [3] amounted to 23.2 µM.
In the case of `COc1cc(C(=O)O)ccc1NC(=O)[C@@H]1N[C@@H](CC(C)(C)C)[C@](C#N)(c2ccc(Cl)cc2F)[C@H]1c1cccc(Cl)c1F` [G], the IC50 in assay [4] is 0.006 µM.
With `CC(C)(C)CC1NC(C(=O)NC2CCC(O)CC2)C(c2cccc(Cl)c2F)C12C(=O)Nc1cc(Cl)ccc12` (stereo not shown) [H], the IC50 in assay [4] was 0.214 µM.
`CCCCN1C(=O)[C@](O)(CC(=O)c2ccccc2OC)c2cc(Br)ccc21` [compound 1]: in assay [1], the FQ-Test was 0.75 and the inhibition constant Ki was determined as 3.9 µM. Further, in assay [2], the Selectivity was determined as 8.98 and the IC50 amounted to 8.63 µM. For the same compound, in assay [3], the IC50 is 77.5 µM.
The like results for `O=C(Nc1nc2ccccc2s1)c1ccccc1C(=O)c1ccc(Cl)cc1` [compound 3] were, in that order, 0.86, 0.62 µM, 10.75, 4.4 µM and 47.3 µM.
For `CCOc1ccccc1Oc1cnc(N)nc1-c1ccc(OCc2ccc(C)cc2)cc1O` [compound 6] the same measures were 0.83, 0.59 µM, 3.71, 5.54 µM and 20.5 µM.

The values above are taken from paper PMC6321222, “An Application of Fit Quality to Screen MDM2/p53 Protein-Protein Interaction Inhibitors” (Molecules, 2018).
